From PubChem BioAssay AID1982 (Sanford-Burnham Center for Chemical Genomics, 2009)
Active and inactive are the calls of the source. How the calls were made is not given here.

Columns and labels:
Assay in all cases: kinase panel binding selectivity, selectivity assay, biochemical, KINOMEscan (AID 1982)
ADCK3 = details: KINOMEscan 353-kinase binding panel, qPCR, at 10 µM, stronger effect = lower value
BMPR1A = details: KINOMEscan 353-kinase binding panel, qPCR, at 10 µM, stronger effect = lower value
CAMKK1 = details: KINOMEscan 353-kinase binding panel, qPCR, at 10 µM, stronger effect = lower value
CDC2L1 = details: KINOMEscan 353-kinase binding panel, qPCR, at 10 µM, stronger effect = lower value
FGFR4 = details: KINOMEscan 353-kinase binding panel, qPCR, at 10 µM, stronger effect = lower value
[1] = target: Focal adhesion kinase 1 (Homo sapiens) (UniProt Q05397); details: KINOMEscan 353-kinase binding panel, qPCR; PTK2; at 10 µM; stronger effect = lower value
GCN2(Kin.Dom.2,S808G) = details: KINOMEscan 353-kinase binding panel, qPCR, at 10 µM, stronger effect = lower value
LKB1 = details: KINOMEscan 353-kinase binding panel, qPCR, at 10 µM, stronger effect = lower value
[2] = target: MAP kinase-activated protein kinase 5 (Homo sapiens) (UniProt Q8IW41); details: KINOMEscan 353-kinase binding panel, qPCR; MAPKAPK5; at 10 µM; stronger effect = lower value
MYLK = details: KINOMEscan 353-kinase binding panel, qPCR, at 10 µM, stronger effect = lower value
MYO3B = details: KINOMEscan 353-kinase binding panel, qPCR, at 10 µM, stronger effect = lower value
[3] = target: Maternal embryonic leucine zipper kinase (Homo sapiens) (UniProt Q14680); details: KINOMEscan 353-kinase binding panel, qPCR; MELK; at 10 µM; stronger effect = lower value
[4] = target: Mitogen-activated protein kinase 1 (Homo sapiens) (UniProt P28482); details: KINOMEscan 353-kinase binding panel, qPCR; ERK2; at 10 µM; stronger effect = lower value
NEK1 = details: KINOMEscan 353-kinase binding panel, qPCR, at 10 µM, stronger effect = lower value
PAK3 = details: KINOMEscan 353-kinase binding panel, qPCR, at 10 µM, stronger effect = lower value
PCTK1 = details: KINOMEscan 353-kinase binding panel, qPCR, at 10 µM, stronger effect = lower value
PFTAIRE2 = details: KINOMEscan 353-kinase binding panel, qPCR, at 10 µM, stronger effect = lower value
PHKG1 = details: KINOMEscan 353-kinase binding panel, qPCR, at 10 µM, stronger effect = lower value
PIK3C2B = details: KINOMEscan 353-kinase binding panel, qPCR, at 10 µM, stronger effect = lower value
PIK3CD = details: KINOMEscan 353-kinase binding panel, qPCR, at 10 µM, stronger effect = lower value
[5] = target: Platelet-derived growth factor receptor beta (Homo sapiens) (UniProt P09619); details: KINOMEscan 353-kinase binding panel, qPCR; PDGFRB; at 10 µM; stronger effect = lower value
[6] = target: Proto-oncogene tyrosine-protein kinase ROS (Homo sapiens) (UniProt P08922); details: KINOMEscan 353-kinase binding panel, qPCR; ROS1; at 10 µM; stronger effect = lower value
[7] = target: Proto-oncogene tyrosine-protein kinase receptor Ret (Homo sapiens) (UniProt P07949); details: KINOMEscan 353-kinase binding panel, qPCR, at 10 µM, stronger effect = lower value
[8] = target: RAC-alpha serine/threonine-protein kinase (Homo sapiens) (UniProt P31749); details: KINOMEscan 353-kinase binding panel, qPCR; AKT1; at 10 µM; stronger effect = lower value
[9] = target: Serine/threonine-protein kinase 17A (Homo sapiens) (UniProt Q9UEE5); details: KINOMEscan 353-kinase binding panel, qPCR; DRAK1; at 10 µM; stronger effect = lower value
[10] = target: Serine/threonine-protein kinase Nek2 (Homo sapiens) (UniProt P51955); details: KINOMEscan 353-kinase binding panel, qPCR, at 10 µM, stronger effect = lower value
[11] = target: Serine/threonine-protein kinase PLK4 (Homo sapiens) (UniProt O00444); details: KINOMEscan 353-kinase binding panel, qPCR, at 10 µM, stronger effect = lower value
TESK1 = details: KINOMEscan 353-kinase binding panel, qPCR, at 10 µM, stronger effect = lower value
TLK2 = details: KINOMEscan 353-kinase binding panel, qPCR, at 10 µM, stronger effect = lower value
TNIK = details: KINOMEscan 353-kinase binding panel, qPCR, at 10 µM, stronger effect = lower value
TNK1 = details: KINOMEscan 353-kinase binding panel, qPCR, at 10 µM, stronger effect = lower value
[12] = target: Tyrosine-protein kinase Blk (Homo sapiens) (UniProt P51451); details: KINOMEscan 353-kinase binding panel, qPCR, at 10 µM, stronger effect = lower value
[13] = target: Tyrosine-protein kinase Lck (Homo sapiens) (UniProt P06239); details: KINOMEscan 353-kinase binding panel, qPCR, at 10 µM, stronger effect = lower value
ULK3 = details: KINOMEscan 353-kinase binding panel, qPCR, at 10 µM, stronger effect = lower value
[14] = target: Vascular endothelial growth factor receptor 2 (Homo sapiens) (UniProt P35968); details: KINOMEscan 353-kinase binding panel, qPCR; VEGFR2; at 10 µM; stronger effect = lower value
[15] = target: Wee1-like protein kinase 2 (Homo sapiens) (UniProt P0C1S8); details: KINOMEscan 353-kinase binding panel, qPCR; WEE2; at 10 µM; stronger effect = lower value
p38-beta = details: KINOMEscan 353-kinase binding panel, qPCR, at 10 µM, stronger effect = lower value

Measured: percent of control binding

Chain of Proto-oncogene tyrosine-protein kinase receptor Ret (Homo sapiens) (P07949 whole entry, looked up): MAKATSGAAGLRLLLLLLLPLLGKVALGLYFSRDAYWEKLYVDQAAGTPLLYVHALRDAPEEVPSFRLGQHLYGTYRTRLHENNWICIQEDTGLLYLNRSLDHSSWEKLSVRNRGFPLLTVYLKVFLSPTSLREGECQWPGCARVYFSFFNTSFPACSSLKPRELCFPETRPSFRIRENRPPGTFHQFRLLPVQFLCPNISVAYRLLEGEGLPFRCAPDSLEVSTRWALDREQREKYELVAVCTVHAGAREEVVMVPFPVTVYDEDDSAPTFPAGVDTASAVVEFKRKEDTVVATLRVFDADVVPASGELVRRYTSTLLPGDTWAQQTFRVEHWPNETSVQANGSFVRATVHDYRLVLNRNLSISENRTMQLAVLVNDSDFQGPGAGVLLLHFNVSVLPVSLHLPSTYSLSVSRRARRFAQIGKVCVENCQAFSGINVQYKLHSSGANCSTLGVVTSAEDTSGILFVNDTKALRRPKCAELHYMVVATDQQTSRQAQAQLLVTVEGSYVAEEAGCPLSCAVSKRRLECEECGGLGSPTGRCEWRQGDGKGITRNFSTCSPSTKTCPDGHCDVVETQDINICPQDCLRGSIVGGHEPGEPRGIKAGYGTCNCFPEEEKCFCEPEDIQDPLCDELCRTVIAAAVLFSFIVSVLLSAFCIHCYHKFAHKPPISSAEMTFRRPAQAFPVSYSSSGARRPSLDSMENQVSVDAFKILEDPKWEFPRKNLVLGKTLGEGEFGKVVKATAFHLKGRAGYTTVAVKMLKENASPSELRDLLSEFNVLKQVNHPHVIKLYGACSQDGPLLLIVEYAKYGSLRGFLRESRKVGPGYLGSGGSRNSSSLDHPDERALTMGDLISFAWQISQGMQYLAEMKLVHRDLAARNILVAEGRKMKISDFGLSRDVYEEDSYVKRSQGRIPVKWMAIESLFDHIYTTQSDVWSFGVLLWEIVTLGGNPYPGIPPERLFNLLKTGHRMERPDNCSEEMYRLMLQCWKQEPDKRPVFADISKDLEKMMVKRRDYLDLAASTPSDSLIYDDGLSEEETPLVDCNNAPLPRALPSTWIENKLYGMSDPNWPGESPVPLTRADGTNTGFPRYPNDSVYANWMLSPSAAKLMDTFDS
Chain of Proto-oncogene tyrosine-protein kinase ROS (Homo sapiens) (P08922 whole entry, looked up): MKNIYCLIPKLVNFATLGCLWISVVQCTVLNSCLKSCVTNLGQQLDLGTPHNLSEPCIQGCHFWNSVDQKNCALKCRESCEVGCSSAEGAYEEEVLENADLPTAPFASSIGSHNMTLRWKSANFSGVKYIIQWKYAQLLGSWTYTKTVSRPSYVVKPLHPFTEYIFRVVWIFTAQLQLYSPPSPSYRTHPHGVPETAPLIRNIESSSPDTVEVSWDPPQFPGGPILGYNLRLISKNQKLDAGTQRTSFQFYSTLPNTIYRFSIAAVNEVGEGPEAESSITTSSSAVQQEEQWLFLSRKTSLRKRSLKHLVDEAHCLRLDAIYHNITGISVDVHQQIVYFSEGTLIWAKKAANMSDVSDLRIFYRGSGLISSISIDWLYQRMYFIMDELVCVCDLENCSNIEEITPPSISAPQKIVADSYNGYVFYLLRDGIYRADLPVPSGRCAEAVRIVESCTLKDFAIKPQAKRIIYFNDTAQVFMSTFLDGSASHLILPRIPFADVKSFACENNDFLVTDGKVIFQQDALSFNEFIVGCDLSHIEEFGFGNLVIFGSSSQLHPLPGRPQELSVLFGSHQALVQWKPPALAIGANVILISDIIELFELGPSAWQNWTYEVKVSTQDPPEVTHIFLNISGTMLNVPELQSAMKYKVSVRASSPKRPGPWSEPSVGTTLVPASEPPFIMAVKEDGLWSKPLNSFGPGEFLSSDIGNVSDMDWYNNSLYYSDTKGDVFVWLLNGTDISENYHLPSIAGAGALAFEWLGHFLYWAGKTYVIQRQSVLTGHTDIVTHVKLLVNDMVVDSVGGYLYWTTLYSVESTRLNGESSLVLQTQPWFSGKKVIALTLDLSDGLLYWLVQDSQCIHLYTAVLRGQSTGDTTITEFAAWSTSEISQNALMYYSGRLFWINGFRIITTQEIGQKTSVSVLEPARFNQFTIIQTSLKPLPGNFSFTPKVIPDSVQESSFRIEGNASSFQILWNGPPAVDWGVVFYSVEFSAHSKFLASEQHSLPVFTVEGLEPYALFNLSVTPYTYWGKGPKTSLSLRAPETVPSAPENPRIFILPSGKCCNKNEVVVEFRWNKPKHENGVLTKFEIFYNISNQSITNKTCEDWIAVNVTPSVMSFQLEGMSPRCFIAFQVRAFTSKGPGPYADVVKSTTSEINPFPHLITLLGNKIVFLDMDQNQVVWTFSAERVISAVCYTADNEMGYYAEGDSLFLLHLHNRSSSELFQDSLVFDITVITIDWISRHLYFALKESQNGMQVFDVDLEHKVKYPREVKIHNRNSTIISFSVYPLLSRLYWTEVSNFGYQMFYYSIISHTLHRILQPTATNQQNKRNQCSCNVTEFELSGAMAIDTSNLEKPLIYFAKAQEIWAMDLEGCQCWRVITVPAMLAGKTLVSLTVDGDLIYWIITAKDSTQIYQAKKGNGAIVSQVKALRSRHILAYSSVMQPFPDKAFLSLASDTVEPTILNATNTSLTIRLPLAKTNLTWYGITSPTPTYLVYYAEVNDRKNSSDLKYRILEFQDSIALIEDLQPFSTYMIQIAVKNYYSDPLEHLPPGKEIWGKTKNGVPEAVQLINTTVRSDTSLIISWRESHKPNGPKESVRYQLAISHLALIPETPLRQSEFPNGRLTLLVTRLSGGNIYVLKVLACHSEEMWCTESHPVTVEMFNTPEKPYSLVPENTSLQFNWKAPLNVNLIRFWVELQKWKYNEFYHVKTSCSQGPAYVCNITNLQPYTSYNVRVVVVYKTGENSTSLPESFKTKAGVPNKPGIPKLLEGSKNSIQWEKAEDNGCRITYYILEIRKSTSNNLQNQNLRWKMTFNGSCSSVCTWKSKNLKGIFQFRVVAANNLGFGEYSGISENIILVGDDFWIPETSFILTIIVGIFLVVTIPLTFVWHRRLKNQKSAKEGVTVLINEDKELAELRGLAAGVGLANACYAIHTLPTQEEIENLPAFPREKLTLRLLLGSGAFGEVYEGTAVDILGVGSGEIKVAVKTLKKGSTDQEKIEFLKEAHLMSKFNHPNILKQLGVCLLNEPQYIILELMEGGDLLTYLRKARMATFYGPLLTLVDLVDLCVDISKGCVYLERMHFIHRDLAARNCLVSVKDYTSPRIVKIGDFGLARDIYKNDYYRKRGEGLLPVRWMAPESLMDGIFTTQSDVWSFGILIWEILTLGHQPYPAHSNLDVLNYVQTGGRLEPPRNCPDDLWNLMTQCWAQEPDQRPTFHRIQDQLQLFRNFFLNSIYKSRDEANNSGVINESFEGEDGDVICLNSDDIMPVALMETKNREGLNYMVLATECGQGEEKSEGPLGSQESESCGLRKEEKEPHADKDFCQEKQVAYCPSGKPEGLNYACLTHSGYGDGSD
Chain of Tyrosine-protein kinase Blk (Homo sapiens) (P51451 whole entry, looked up): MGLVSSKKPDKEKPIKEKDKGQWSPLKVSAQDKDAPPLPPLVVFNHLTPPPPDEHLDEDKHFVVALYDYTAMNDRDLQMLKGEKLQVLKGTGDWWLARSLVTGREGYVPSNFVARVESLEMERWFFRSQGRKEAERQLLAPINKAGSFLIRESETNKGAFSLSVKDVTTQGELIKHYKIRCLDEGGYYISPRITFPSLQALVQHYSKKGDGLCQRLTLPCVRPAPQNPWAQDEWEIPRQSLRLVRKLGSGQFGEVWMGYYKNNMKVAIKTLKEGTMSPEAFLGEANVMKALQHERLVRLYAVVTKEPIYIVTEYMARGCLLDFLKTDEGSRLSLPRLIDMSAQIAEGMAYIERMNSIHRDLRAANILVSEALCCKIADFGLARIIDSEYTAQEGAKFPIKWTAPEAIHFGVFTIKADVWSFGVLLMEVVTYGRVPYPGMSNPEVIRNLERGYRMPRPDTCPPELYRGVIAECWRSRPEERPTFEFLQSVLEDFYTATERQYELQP
Chain of Serine/threonine-protein kinase 17A (Homo sapiens) (Q9UEE5 whole entry, looked up): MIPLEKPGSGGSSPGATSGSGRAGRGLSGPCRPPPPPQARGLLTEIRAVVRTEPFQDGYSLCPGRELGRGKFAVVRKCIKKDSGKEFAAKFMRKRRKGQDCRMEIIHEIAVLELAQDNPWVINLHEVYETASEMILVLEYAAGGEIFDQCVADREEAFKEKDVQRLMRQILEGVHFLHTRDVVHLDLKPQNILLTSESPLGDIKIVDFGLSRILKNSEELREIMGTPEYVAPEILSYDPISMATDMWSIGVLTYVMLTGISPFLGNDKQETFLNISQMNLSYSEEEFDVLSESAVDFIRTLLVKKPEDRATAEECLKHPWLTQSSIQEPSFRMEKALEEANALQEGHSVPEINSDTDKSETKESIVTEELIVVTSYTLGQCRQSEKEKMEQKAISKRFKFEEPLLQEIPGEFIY
Chain of Maternal embryonic leucine zipper kinase (Homo sapiens) (Q14680 whole entry, looked up): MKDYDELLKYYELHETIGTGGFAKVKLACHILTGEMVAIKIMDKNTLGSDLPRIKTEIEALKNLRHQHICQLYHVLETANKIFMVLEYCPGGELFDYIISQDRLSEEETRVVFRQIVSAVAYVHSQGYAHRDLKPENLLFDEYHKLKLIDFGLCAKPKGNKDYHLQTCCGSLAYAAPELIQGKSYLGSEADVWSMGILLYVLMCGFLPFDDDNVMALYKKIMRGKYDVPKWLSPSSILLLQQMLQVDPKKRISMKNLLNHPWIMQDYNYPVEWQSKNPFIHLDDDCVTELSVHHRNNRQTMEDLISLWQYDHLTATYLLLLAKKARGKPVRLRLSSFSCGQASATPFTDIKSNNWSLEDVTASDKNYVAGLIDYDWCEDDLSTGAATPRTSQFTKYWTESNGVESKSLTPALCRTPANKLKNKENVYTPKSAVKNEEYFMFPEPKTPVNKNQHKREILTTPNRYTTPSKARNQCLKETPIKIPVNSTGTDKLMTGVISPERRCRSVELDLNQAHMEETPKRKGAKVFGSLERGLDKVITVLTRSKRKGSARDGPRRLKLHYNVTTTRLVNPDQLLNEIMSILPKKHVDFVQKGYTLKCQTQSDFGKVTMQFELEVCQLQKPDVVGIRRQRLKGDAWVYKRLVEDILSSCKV

Cc1cc2nc(NCCCO)n(CC(=O)c3cc(C(C)(C)C)c(O)c(C(C)(C)C)c3)c2cc1C
inactive: ADCK3 72% | BMPR1A 97% | CAMKK1 78% | CDC2L1 81% | FGFR4 81% | [1] 100% | GCN2(Kin.Dom.2,S808G) 95% | LKB1 100% | [2] 100% | MYLK 80% | MYO3B 65% | [3] 93% | [4] 89% | NEK1 91% | PAK3 79% | PCTK1 84% | PFTAIRE2 53% | PHKG1 100% | PIK3C2B 90% | PIK3CD 65% | [5] 87% | [6] 100% | [7] 97% | [7]; RET(M918T) 100% | [7]; RET(V804L) 100% | [7]; RET(V804M) 99% | [8] 100% | [9] 89% | [10] 84% | [11] 91% | TESK1 89% | TLK2 100% | TNIK 100% | TNK1 80% | [12] 99% | [13] 100% | ULK3 100% | [14] 88% | [15] 100% | p38-beta 100%
